Measured values from PMC5433425 (PeerJ, 2017).
Values joined by “and” are separate entries in the source; they are usually repeats but may differ in a detail not shown here. Equal values may be shown once. Read-outs that look alike come from different tables or passages of the source. Peptide text beside a SMILES is read from it. * marks the point of attachment. βNA = c1ccc2cc(N*)ccc2c1

Tests used:
[1] = test system: E. coli K-12 AG100 (wild-type); experiment: MIC, broth microdilution; format: cell-based; details: Escherichia coli
[2] = test system: human monocyte-derived macrophages; experiment: Cytotoxicity, AlamarBlue method; format: cell-based; details: human, 3 days
Method: (§1) The blood was collected from healthy donors and the peripheral blood mononuclear cells were isolated by Ficoll-Paque Plus (GE Healthcare, Freiburg, Germany) density gradient centrifugation as previously described ([Machado et al., 2016]). […] Fresh medium was added at day 4 post isolation. The effect of the compounds on human monocyte-derived macrophages was evaluated using the AlamarBlue method (Molecular Probes, Life Technologies) ([O’Brien et al., 2000]), and by measuring the release of the lactate dehydrogenase (LDH) into the culture supernatants using the Pierce LDH Cytotoxicity Assay (ThermoFisher Scientific, Waltham, MA, USA) ([Chan, Moriwaki & Rosa, 2013]) according to the manufacturer’s instructions. Briefly, 5 × 10^4 cells were seeded in 96-well microplates treated with the compounds, and incubated at 37 °C with 5% CO2. After 72 h of treatment, the cell viability was assessed. For the AlamarBlue method, the dye was added to each well to a final concentration of 10% and incubated overnight at 37 °C and 5% CO2. The fluorescence was measured with a 540/35 excitation filter and a 590/20 emission filter in a Synergy HT multi-mode microplate reader. The release of LDH from damaged cells into culture supernatants, as an indicator of cytotoxicity, was measured in serum-free medium. Here the amount of enzyme activity correlates to the number of damaged cells. The specific lysis was calculated as follows: (treated cells—spontaneous LDH release)/ (maximum LDH release—spontaneous LDH release) ×100.

[3] = test system: human monocyte-derived macrophages; experiment: Cytotoxicity, LDH release; format: cell-based; details: human, 3 days
Method: as §1

E. coli AG100A = experiment: EtBr efflux by real-time fluorometry; details: 20 µM
Method: Control tubes with only cells and cells with and without 0.4% glucose were included. The fluorescence was measured in a Rotor-Gene 3000 and the data was acquired every 30 s for 30 min at 37 °C. The efflux activity was quantified by comparing the fluorescence data obtained under conditions that promote efflux (presence of glucose and absence of efflux inhibitor) with the data from the control in which the bacteria are under conditions of no efflux (presence of an inhibitor and no energy source).

## CN(C)CCCN1c2ccccc2Sc2ccc(Cl)cc21 [CPZ, chlorpromazine]
[1]; E. coli AG100 wild-type, read-out: MIC
  MIC: 120 µg/mL and 338 µM
[2]
  CC10: 13.36 µM
[3]; 1.25 µM
  LDH release: 0.95%
[3]; 20 µM
  LDH release: 24%
E. coli AG100A; cycle 1, + glucose
  EtBr fluorescence (Channel Cycling A.530/585hp): 3.827
E. coli AG100A; cycle 1, without glucose
  EtBr fluorescence (Channel Cycling A.530/585hp): 4.231
E. coli AG100A; cycle 2, + glucose
  EtBr fluorescence (Channel Cycling A.530/585hp): 3.676
E. coli AG100A; cycle 2, without glucose
  EtBr fluorescence (Channel Cycling A.530/585hp): 4.204
E. coli AG100A; cycle 3, + glucose
  EtBr fluorescence (Channel Cycling A.530/585hp): 3.648
E. coli AG100A; cycle 3, without glucose
  EtBr fluorescence (Channel Cycling A.530/585hp): 4.237
E. coli AG100A; cycle 4, without glucose
  EtBr fluorescence (Channel Cycling A.530/585hp): 4.314
E. coli AG100A; cycle 5, without glucose
  EtBr fluorescence (Channel Cycling A.530/585hp): 4.267
E. coli AG100A; cycle 6, without glucose
  EtBr fluorescence (Channel Cycling A.530/585hp): 4.36
E. coli AG100A; cycle 7, without glucose
  EtBr fluorescence (Channel Cycling A.530/585hp): 4.4
E. coli AG100A; cycle 8, without glucose
  EtBr fluorescence (Channel Cycling A.530/585hp): 4.486
E. coli AG100A; cycle 9, + glucose
  EtBr fluorescence (Channel Cycling A.530/585hp): 3.606
E. coli AG100A; cycle 9, without glucose
  EtBr fluorescence (Channel Cycling A.530/585hp): 4.551
E. coli AG100A; cycle 10, + glucose
  EtBr fluorescence (Channel Cycling A.530/585hp): 3.712
E. coli AG100A; cycle 10, without glucose
  EtBr fluorescence (Channel Cycling A.530/585hp): 4.522
E. coli AG100A; cycle 11, + glucose
  EtBr fluorescence (Channel Cycling A.530/585hp): 3.667
E. coli AG100A; cycle 11, without glucose
  EtBr fluorescence (Channel Cycling A.530/585hp): 4.614
E. coli AG100A; cycle 12, + glucose
  EtBr fluorescence (Channel Cycling A.530/585hp): 3.687
E. coli AG100A; cycle 12, without glucose
  EtBr fluorescence (Channel Cycling A.530/585hp): 4.652
E. coli AG100A; cycle 13, + glucose
  EtBr fluorescence (Channel Cycling A.530/585hp): 3.761
E. coli AG100A; cycle 13, without glucose
  EtBr fluorescence (Channel Cycling A.530/585hp): 4.775
E. coli AG100A; cycle 14, + glucose
  EtBr fluorescence (Channel Cycling A.530/585hp): 3.711
E. coli AG100A; cycle 14, without glucose
  EtBr fluorescence (Channel Cycling A.530/585hp): 4.879
E. coli AG100A; cycle 15, + glucose
  EtBr fluorescence (Channel Cycling A.530/585hp): 3.685
E. coli AG100A; cycle 15, without glucose
  EtBr fluorescence (Channel Cycling A.530/585hp): 4.89
E. coli AG100A; cycle 16, + glucose
  EtBr fluorescence (Channel Cycling A.530/585hp): 3.729
E. coli AG100A; cycle 16, without glucose
  EtBr fluorescence (Channel Cycling A.530/585hp): 4.933
E. coli AG100A; cycle 17, + glucose
  EtBr fluorescence (Channel Cycling A.530/585hp): 3.749
E. coli AG100A; cycle 17, without glucose
  EtBr fluorescence (Channel Cycling A.530/585hp): 4.963
E. coli AG100A; cycle 18, + glucose
  EtBr fluorescence (Channel Cycling A.530/585hp): 3.817
E. coli AG100A; cycle 18, without glucose
  EtBr fluorescence (Channel Cycling A.530/585hp): 5.023
E. coli AG100A; cycle 19, + glucose
  EtBr fluorescence (Channel Cycling A.530/585hp): 3.768
E. coli AG100A; cycle 19, without glucose
  EtBr fluorescence (Channel Cycling A.530/585hp): 5.067
E. coli AG100A; cycle 20, + glucose
  EtBr fluorescence (Channel Cycling A.530/585hp): 3.821
E. coli AG100A; cycle 20, without glucose
  EtBr fluorescence (Channel Cycling A.530/585hp): 5.072
E. coli AG100A; cycle 21, + glucose
  EtBr fluorescence (Channel Cycling A.530/585hp): 3.796
E. coli AG100A; cycle 21, without glucose
  EtBr fluorescence (Channel Cycling A.530/585hp): 5.224
E. coli AG100A; cycle 22, + glucose
  EtBr fluorescence (Channel Cycling A.530/585hp): 3.843
E. coli AG100A; cycle 22, without glucose
  EtBr fluorescence (Channel Cycling A.530/585hp): 5.19
E. coli AG100A; cycle 23, + glucose
  EtBr fluorescence (Channel Cycling A.530/585hp): 3.825
E. coli AG100A; cycle 23, without glucose
  EtBr fluorescence (Channel Cycling A.530/585hp): 5.293
E. coli AG100A; cycle 24, + glucose
  EtBr fluorescence (Channel Cycling A.530/585hp): 3.796
E. coli AG100A; cycle 24, without glucose
  EtBr fluorescence (Channel Cycling A.530/585hp): 5.381
E. coli AG100A; cycle 25, + glucose
  EtBr fluorescence (Channel Cycling A.530/585hp): 3.807
E. coli AG100A; cycle 25, without glucose
  EtBr fluorescence (Channel Cycling A.530/585hp): 5.403
E. coli AG100A; cycle 26, + glucose
  EtBr fluorescence (Channel Cycling A.530/585hp): 3.836
E. coli AG100A; cycle 26, without glucose
  EtBr fluorescence (Channel Cycling A.530/585hp): 5.546
E. coli AG100A; cycle 27, + glucose
  EtBr fluorescence (Channel Cycling A.530/585hp): 3.8908
E. coli AG100A; cycle 27, without glucose
  EtBr fluorescence (Channel Cycling A.530/585hp): 5.462
E. coli AG100A; cycle 28, + glucose
  EtBr fluorescence (Channel Cycling A.530/585hp): 3.846
E. coli AG100A; cycle 28, without glucose
  EtBr fluorescence (Channel Cycling A.530/585hp): 5.551
E. coli AG100A; cycle 29, + glucose
  EtBr fluorescence (Channel Cycling A.530/585hp): 3.901
E. coli AG100A; cycle 29, without glucose
  EtBr fluorescence (Channel Cycling A.530/585hp): 5.7035
E. coli AG100A; cycle 30, + glucose
  EtBr fluorescence (Channel Cycling A.530/585hp): 3.8738
E. coli AG100A; cycle 30, without glucose
  EtBr fluorescence (Channel Cycling A.530/585hp): 5.804
E. coli AG100A; cycle 31, + glucose
  EtBr fluorescence (Channel Cycling A.530/585hp): 3.964
E. coli AG100A; cycle 31, without glucose
  EtBr fluorescence (Channel Cycling A.530/585hp): 5.758
E. coli AG100A; cycle 32, + glucose
  EtBr fluorescence (Channel Cycling A.530/585hp): 3.895
E. coli AG100A; cycle 32, without glucose
  EtBr fluorescence (Channel Cycling A.530/585hp): 5.843
E. coli AG100A; cycle 33, + glucose
  EtBr fluorescence (Channel Cycling A.530/585hp): 3.921
E. coli AG100A; cycle 33, without glucose
  EtBr fluorescence (Channel Cycling A.530/585hp): 5.872
E. coli AG100A; cycle 34, + glucose
  EtBr fluorescence (Channel Cycling A.530/585hp): 3.877
E. coli AG100A; cycle 34, without glucose
  EtBr fluorescence (Channel Cycling A.530/585hp): 5.974
E. coli AG100A; cycle 35, + glucose
  EtBr fluorescence (Channel Cycling A.530/585hp): 3.838
E. coli AG100A; cycle 35, without glucose
  EtBr fluorescence (Channel Cycling A.530/585hp): 6.003
E. coli AG100A; cycle 36, + glucose
  EtBr fluorescence (Channel Cycling A.530/585hp): 3.873
E. coli AG100A; cycle 36, without glucose
  EtBr fluorescence (Channel Cycling A.530/585hp): 6.052
E. coli AG100A; cycle 37, + glucose
  EtBr fluorescence (Channel Cycling A.530/585hp): 3.865
E. coli AG100A; cycle 37, without glucose
  EtBr fluorescence (Channel Cycling A.530/585hp): 6.051
E. coli AG100A; cycle 38, + glucose
  EtBr fluorescence (Channel Cycling A.530/585hp): 3.927
E. coli AG100A; cycle 38, without glucose
  EtBr fluorescence (Channel Cycling A.530/585hp): 6.151
E. coli AG100A; cycle 39, + glucose
  EtBr fluorescence (Channel Cycling A.530/585hp): 3.914
E. coli AG100A; cycle 39, without glucose
  EtBr fluorescence (Channel Cycling A.530/585hp): 6.208
E. coli AG100A; cycle 40, + glucose
  EtBr fluorescence (Channel Cycling A.530/585hp): 4.038
E. coli AG100A; cycle 40, without glucose
  EtBr fluorescence (Channel Cycling A.530/585hp): 6.311
E. coli AG100A; cycle 41, + glucose
  EtBr fluorescence (Channel Cycling A.530/585hp): 3.929
E. coli AG100A; cycle 41, without glucose
  EtBr fluorescence (Channel Cycling A.530/585hp): 6.369
E. coli AG100A; cycle 42, + glucose
  EtBr fluorescence (Channel Cycling A.530/585hp): 3.925
E. coli AG100A; cycle 42, without glucose
  EtBr fluorescence (Channel Cycling A.530/585hp): 6.396
E. coli AG100A; cycle 43, + glucose
  EtBr fluorescence (Channel Cycling A.530/585hp): 3.906
E. coli AG100A; cycle 43, without glucose
  EtBr fluorescence (Channel Cycling A.530/585hp): 6.421
E. coli AG100A; cycle 44, + glucose
  EtBr fluorescence (Channel Cycling A.530/585hp): 3.836
E. coli AG100A; cycle 44, without glucose
  EtBr fluorescence (Channel Cycling A.530/585hp): 6.524
E. coli AG100A; cycle 45, without glucose
  EtBr fluorescence (Channel Cycling A.530/585hp): 6.6507
E. coli AG100A; cycle 46, without glucose
  EtBr fluorescence (Channel Cycling A.530/585hp): 6.69
E. coli AG100A; cycle 47, without glucose
  EtBr fluorescence (Channel Cycling A.530/585hp): 6.633
E. coli AG100A; cycle 48, without glucose
  EtBr fluorescence (Channel Cycling A.530/585hp): 6.748
E. coli AG100A; cycle 49, without glucose
  EtBr fluorescence (Channel Cycling A.530/585hp): 6.869
E. coli AG100A; cycle 50, without glucose
  EtBr fluorescence (Channel Cycling A.530/585hp): 6.908
E. coli AG100A; cycle 51, without glucose
  EtBr fluorescence (Channel Cycling A.530/585hp): 6.927
E. coli AG100A; cycle 52, without glucose
  EtBr fluorescence (Channel Cycling A.530/585hp): 6.871
E. coli AG100A; cycle 53, without glucose
  EtBr fluorescence (Channel Cycling A.530/585hp): 6.976
E. coli AG100A; cycle 54, without glucose
  EtBr fluorescence (Channel Cycling A.530/585hp): 6.9692
E. coli AG100A; cycle 55, without glucose
  EtBr fluorescence (Channel Cycling A.530/585hp): 7.074
E. coli AG100A; cycle 56, without glucose
  EtBr fluorescence (Channel Cycling A.530/585hp): 7.021
E. coli AG100A; cycle 57, without glucose
  EtBr fluorescence (Channel Cycling A.530/585hp): 7.172
E. coli AG100A; cycle 58, without glucose
  EtBr fluorescence (Channel Cycling A.530/585hp): 7.396
E. coli AG100A; cycle 59, without glucose
  EtBr fluorescence (Channel Cycling A.530/585hp): 7.291
E. coli AG100A; cycle 60, without glucose
  EtBr fluorescence (Channel Cycling A.530/585hp): 7.378
E. coli AG100A; cycle 61, without glucose
  EtBr fluorescence (Channel Cycling A.530/585hp): 7.37

## NC(N)=NCCC[C@H](NC(=O)[C@@H](N)Cc1ccccc1)C(=O)Nc1ccc2ccccc2c1 [PAβN] (H-Phe-Arg-βNA)
[1]
  MIC: > 200 µg/mL and > 385 µM
